The values that follow come from US9192688B2 (priority 2009, dated 2015).

Like-named read-outs stand apart in the source and are kept apart here.

For experiment [1], the system named is test organisms (Bacillus cereus, Staphylococcus aureus, Salmonella typhimurium, Escherichia coli, Saccharomyces cerevisiae, bacteriophage). Conditions: for effect on viable count of test organisms: 5 kg meat.
A further experiment concerns model prion protein. Conditions: T5 protocol; 5 g meat, 20% moisture, 100 ug model prion protein.

For the molecule `OO` [gaseous hydrogen peroxide, hydrogen peroxide], the “effect on viable count of test organisms” value is given as “little or no effect” in experiment [1] (trial T1: 30 ml 30% (v/v) H2O2 vaporised, 2.6 g/kg, 0.01 g/kg/s, 30 minutes contact, about 0.01 kPa) and “little or no effect” in experiment [1] (trial T2: 60 ml 30% (v/v) H2O2 vaporised, 0.01 g/kg/s, 30 minutes contact). Also, the “effect on the organisms” value in experiment [1] (trial T3: 90 ml 30% (v/v) H2O2, 7.9 g/kg meat, 0.01 g/kg/s, 30 minutes contact) was “significant effect”. In experiment [1] (trial T5: 30 ml introduced rapidly over about 5 seconds (0.5 g/kg/s), then 60 ml at 0.01 g/kg/s), the “inactivation compared with T3 on increasing the contact rate” value is recorded as “enhanced”. The “effect on viable count” value with S. aureus, in the experiment with S. typhimurium, with E. coli and with mesophilic organisms was “elimination” each time. Also, the “inactivation of S. cerevisiae” value with S. cerevisiae is “particularly striking effect”. Besides, the “prion content after treatment versus positive control” value with model prion protein is “significantly destroyed”.
